According to ChEMBL document CHEMBL1129799, “Homology modeling of metabotropic glutamate receptors. (mGluRs) structural motifs affecting binding modes and pharmacological profile of mGluR1 agonists and competitive antagonists” (J Med Chem, 1996):

Biological target: T1, Metabotropic glutamate receptor 1 (Homo sapiens, UniProt Q13255)
Experiment: Inhibitory concentration for half maximal inhibition of PI hydrolysis (mGluR1a)

T1 sequence (Q13255 whole entry): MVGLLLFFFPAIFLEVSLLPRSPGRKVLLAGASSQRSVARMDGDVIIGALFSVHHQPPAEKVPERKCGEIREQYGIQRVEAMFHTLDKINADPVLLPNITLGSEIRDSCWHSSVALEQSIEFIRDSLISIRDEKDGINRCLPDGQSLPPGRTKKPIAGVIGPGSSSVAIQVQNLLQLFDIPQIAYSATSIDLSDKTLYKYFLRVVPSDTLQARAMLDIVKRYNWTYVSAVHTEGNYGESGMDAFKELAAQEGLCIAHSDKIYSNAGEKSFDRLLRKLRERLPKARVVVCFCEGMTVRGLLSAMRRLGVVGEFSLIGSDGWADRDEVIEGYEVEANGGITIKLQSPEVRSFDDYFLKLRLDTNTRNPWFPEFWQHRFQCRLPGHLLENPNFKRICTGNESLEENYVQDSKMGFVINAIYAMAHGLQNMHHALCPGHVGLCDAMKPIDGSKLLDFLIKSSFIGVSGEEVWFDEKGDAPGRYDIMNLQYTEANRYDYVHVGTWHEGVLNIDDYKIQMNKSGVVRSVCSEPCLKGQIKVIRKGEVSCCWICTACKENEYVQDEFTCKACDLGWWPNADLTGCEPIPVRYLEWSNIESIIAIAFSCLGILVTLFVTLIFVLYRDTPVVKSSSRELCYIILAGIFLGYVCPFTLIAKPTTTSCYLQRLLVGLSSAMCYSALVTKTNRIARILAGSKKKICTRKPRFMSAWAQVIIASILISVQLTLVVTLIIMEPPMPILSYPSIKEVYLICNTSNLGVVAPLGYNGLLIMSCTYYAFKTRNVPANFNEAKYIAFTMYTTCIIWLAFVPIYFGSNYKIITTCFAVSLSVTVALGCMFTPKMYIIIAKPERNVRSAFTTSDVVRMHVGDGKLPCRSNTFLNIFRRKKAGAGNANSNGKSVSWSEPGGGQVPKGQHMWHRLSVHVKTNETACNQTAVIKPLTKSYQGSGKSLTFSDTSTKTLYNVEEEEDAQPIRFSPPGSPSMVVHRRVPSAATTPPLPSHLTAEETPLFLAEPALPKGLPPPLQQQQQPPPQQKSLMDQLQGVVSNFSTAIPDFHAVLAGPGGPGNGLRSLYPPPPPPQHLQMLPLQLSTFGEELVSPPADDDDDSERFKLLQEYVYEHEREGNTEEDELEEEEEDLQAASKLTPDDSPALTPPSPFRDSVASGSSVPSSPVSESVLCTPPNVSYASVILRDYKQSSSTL

| Structure (SMILES) | IC50 |
| --- | --- |
| N[C@H](C(=O)O)c1ccc(C(=O)O)cc1 | 65 µM |
| NC1(C(=O)O)CCc2cc(C(=O)O)ccc21 (stereo unspecified) | 214 µM |
| N[C@H](C(=O)O)c1ccc(O)c(C(=O)O)c1 | 290 µM |
| N[C@H](C(=O)O)c1ccc(C(=O)O)c(O)c1 | 40 µM |

Biological target: T1, Metabotropic glutamate receptor 1
Experiment: Effective concentration for half maximal stimulation of PI hydrolysis (mGluR1a)

| Structure (SMILES) | EC50 |
| --- | --- |
| N[C@H](C(=O)O)c1cc(=O)[nH]o1 [IBOTENIC ACID] | 6 µM |
| N[C@H](C(=O)O)c1cccc(O)c1 | 68 µM |
